Patent publication US20050143453A1, “Selective preventing and therapeutic agents for progressive lesion after organic damage” (priority 2000, published 2005)
Like-named read-outs stand apart in the source and are kept apart here.

Columns and labels:
[1] = system: induction of effector macrophage by contact of human PBMC with lipopolysaccharide; assay: SPFC production by LPS stimulation (Test Example 1); assay type: cell-based
Procedure: A suppressive effect of the test compound to effector macrophage induction was investigated in vitro by an induction and production system of spontaneous plaque-forming cell (SPEC) mentioned in M. Ishibashi, S. Jiang, Y. Kokado, S. Takahara, T. Sonoda: Immunopharmacologic effects of immunosuppressive agents explored by a new effector generation assay. Transplant Proc., 21: 1854-1858, 1989.
Heparin-added peripheral blood (40 ml) was collected from a healthy person and the same amount of EDTA-added physiological saline was added. PBMC were obtained by a specific gravity centrifugal method using Ficoll-Hypaque (manufactured by Pharmacia Fine Chemicals). Self-plasma was added thereto and allowed to stand at 37° C. for 10 minutes and platelets were removed by a low-speed centrifugal separation. RPMI 1640 liquid containing 15 μg/ml of gentamicin and 2 mM L-glutamine was used for washing the PBMC. Concentration of the PBMC was adjusted to 2×10^6 cells/ml using the same liquid.
Each 200 μl of a solution containing 2×10^6 PBMC/ml prepared in the step 1 were added to each well of a micro test plate, lipopolysaccharide (hereinafter, abbreviated as LPS) was diluted with the RPMI 1640 liquid to make the final concentration 80 μg/ml and the said LPS solution was added to each well of the 200 μl-micro test plate. Further, each 50 μl of human serum of type AB were added so as to make the concentration 10% by weight. Two such micro test plates were prepared.
After that, to the above two micro test plates was added a solution where the test compound was diluted with 1% by weight of DMSO so as to make the concentration of the test compound 1 μM. Similarly were prepared each two micro test plates where the final concentrations of the test compound were 0.1 μM, 0.01 μM and 0.001 μM.
The culture liquid prepared as such was incubated for 6 days at 37° C. in 5% CO2.
The effector macrophage induced after the incubation was all recovered using a rubber-policeman (spatula made of rubber). A Hanks solution containing 5 μg/ml of gentamicin was used for washing and, using the said solution, there was prepared a solution where the concentration of the induced effector macrophage was 2×10^6 per ml.
With regard to autologous erythrocytes, those which were preserved at 4° C. in a phosphate physiological saline (hereinafter, abbreviated as PBS) to which 0.1% by weight of AB serum and autologous erythrocytes obtained from PBMC separation were used were used. The preserved autologous erythrocytes were washed for three times with a Hanks solution to which no serum was added and made into a solution of 4% by weight concentration using the said Hanks solution. Poly-L-lysine was added to a Terasaki plate and washed with PBS every 20 minutes at 37° C., the above-mentioned autologous erythrocyte solution was added thereto immediately, the mixture was allowed to stand at 37° C. for 30 minutes and the erythrocytes which were not adhered to the plate were removed to prepare a Terasaki plate to which self-erythrocytes in a monolayer were adhered.
A Hanks solution (4 μl) was added to the said Terasaki plate, 4 μl of a solution containing the induced effector macrophage obtained in the step 3 were added thereto and the mixture was allowed to stand at 37° C. for 2 hours. After completion of the reaction, it was fixed by formalin. Numbers of the produced SPFC which were adhered or phagocytized were measured.
A mean SPFC production number was calculated from the measured values of SPFC production when the concentration of the test compound was the same. SPFC production number per 1×10^6 of the induced effector macrophage was calculated and, from the recovered induced effector macrophage numbers, total SPFC production amount (S2) was calculated.
As a control, no test compound was added and the same operation as above was carried out to calculate the total SPFC production amount (S1). […]

[2] = system: lesion of tubulointerstitial tissue / glomerulus; assay: Suppression of renal lesion in vivo by active metabolites (model not stated)
[3] = system: induction of effector macrophage by contact of human PBMC with mitomycin-treated human PBMC (allo-MLC); assay: SPFC production by allo-MLC stimulation (Test Example 2); assay type: cell-based
[4] = system: kidney of chronic puromycin nephrosis rat; assay: Puromycin chronic nephrosis model in rat (CPN, Test Example 4); assay type: in vivo; set-up: key to Suppressive Effect to Glomerular Lesion / Suppressive Effect to Lesion of Tubulointerstitial Tissue: ∘: available; Δ: somewhat available; x: not available
Procedure: Evaluation Using Puromycin Chronic Nephrosis Model in Rat
Male SD rat of 8 weeks age of about 250 g was used and […] of puromycin were intravenously administered once according to a method of Diamond, et al. (J. R. Diamond, I. Pesek, S. Ruggeri, M. J. Karnovsky: Essential fatty acid deficiency during acute puromycin nephrosis ameliorates late renal injury. Am. J. Physiol, 257: F798˜F807, 1989). There was induced a chronic puromycin nephrosis rat where albuminuria increased from about tenth to twelfth week. After eighth week from administration of puromycin, each of compound (9-1) and compound (6-1) was subcutaneously injected at the dose of 30 mg/kg/day everyday until the 22nd week.
As a functional evaluation of kidney, albumin in urine was measured every week using a kit for the measurement of albumin. On the 22nd week, the rat was killed and anatomized to observe functional and morphological changes of kidney.

[5] = Acute and chronic toxicity tests (Test Example 5); assay type: in vivo; settings: subcutaneously 30 mg/kg/day for ten days
Procedure: Acute and Chronic Toxicity Tests
Toxicity test of benzyl 2-chloro-5-oxotetrahydrofuran-2-carboxylate represented by the formula (6-1) manufactured in Example 8 and ethyl 2-ketoglutarate represented by the formula (9-1) was carried out.

[6] = system: obstruction-released kidney of male SD rats; assay: Obstruction release model after complete obstruction of unilateral ureter for 14 days (UUO/Release, Test Example 3); assay type: in vivo, rat; set-up: key to Suppressive Effect to Glomerular Lesion / Suppressive Effect to Lesion of Tubulointerstitial Tissue: ∘: available; Δ: somewhat available; x: not available
Procedure: Obstruction Release Model after Complete Obstruction of Unilateral Ureter for 14 Days
Experimental models were prepared by a method devised and established by Ishibashi (Michio Ishibashi, et al.: The Japanese Journal of Nephrology, 42: 248, 2000) using male SD rats of 8-9 weeks age and about 280 g. Thus, the rat was laparotomized under anesthetization with ether and ureter was ligated with 7-0 Nylon at the height of the margin of lower pole of left kidney to close the abdomen. On the 14th day after obstruction, the obstruction was released and urinary passage was reconstructed using a cuff. Thus, after 14 days, the part of ligated obstructed ureter was resected, a polyethylene tube of 25 gages (manufactured by Nippon Sherwood) was used as a cuff and inserted into and retained at the lumen from the cut end of the lower normal ureter, then the cuff was also retained in the expanded upper ureter and each of them was ligated and fixed by 7-0 Nylon to reconstruct the urinary passage. At the same time, the right kidney at the opposite side was excised. After the release of the obstruction, body weight was measured, blood was collected on the 2nd day, 5th day and 7th day from the release to measure serum creatinine, then the rat was sacrificed under anesthetization and the left obstruction-released kidney was excised. With regard to the excised kidney, there were carried out measurement of weight of the kidney and pathological test for the kidney.
An in vivo biological test was carried out for the γ-lactone derivatives according to the present invention using the above models. With regard to the test compound, bulk powder of the test compound was dissolved in an aseptic physiological saline together with gum arabic and the final concentration of gum arabic was 5%(vol/vol). The concentration of the test compound 30 mg/ml was suspended in 5% gum arabic-saline solution. The preparation was subcutaneously injected at the dose of 30 mg/kg every day throughout the experiment. With regard to the test compound, there were used (9-1), (4-2) and (7-3) as the compounds of group I suppressing the SPFC production by allo-MLC stimulation, i.e., the compounds which selectively suppress the induction of effector macrophage in the presence of allo-MLC while there was used (3-2) as the compound of group II suppressing the SPFC production by LPS stimulation, i.e., the compounds which selectively suppress the induction of effector macrophage in the presence of LPS.
In the Table, “functional classification” of the compound means the above group I, group II and group III. “Compound” means the compound bearing each of the above-mentioned compound numbers. The fact whether glomerular lesion was suppressed was judged by the ameriolation of the lesions such as thickness of wall of Bowman's capsule, hyperplasia of mesangial cells and glomerular sclerosis. The fact whether lesion of tubulointerstitial tissue was suppressed was judged by the ameriolation of the lesions such as thickness of basement membrane of tubules, cellular infiltration and fibrosis of interstitial tissue. In the table, “control” is the result when the same test as above was carried out using 5% gum arabic only which is a solvent.
In order to further confirm whether the preventive and therapeutic effect of the γ-lactone derivatives of the present invention to the target cell damage is selective, (7-3) of the group I and (6-1) of the group II were used as test compounds and they were subcutaneously injected at the dose of 30 mg/kg every day and compared with the control group. With regard to the control group, only 5% gum arabic which is a solvent was used and the same test as above was carried out.

[7] = 144 h, human PBMC with mitomycin-treated human PBMC, incubated 6 days, Table 1, read-out: SPFC Production Inhibiting Concentration by all-MLC Stimulation (μM: IC50)
[8] = Homo sapiens, Table 5, read-out: Inhibiting Concentration for SPEC Production by allo-MLC Stimulation (μM: IC50)
[9] = 144 h, human PBMC with LPS 80 μg/ml, incubated 6 days, Table 1, read-out: SPFC Production Inhibiting Concentration by LPS Stimulation (μM: IC50)
[10] = Homo sapiens, Table 5, read-out: Inhibiting Concentration for SPEC Production by LPS Stimulation (μM: IC50)
[11] = 30 mg/kg/day subcutaneously from 8th to 22nd week after puromycin
[12] = 30 mg/kg subcutaneously every day, Table 2
[13] = Experimental Model of Rat: UUO/Release and CPN

| Compound | suppression of SPFC production by LPS stimulation [1] | suppression of lesion of glomerulus in vivo [2] | IC50 [3, 7] [µM] | IC50 [3, 8] [µM] | functional group (selective suppression of SPFC production by allo-MLC or LPS stimulation) ([3]; summary of Table 1) | IC50 [1, 9] [µM] | IC50 [1, 10] [µM] | suppression of glomerular lesion ([4]; 30 mg/kg/day subcutaneously) | Rate of Cases where Glomerular Lesion was Suppressed [4, 11] | Rate of Cases where Lesion of Tubulointerstitial Tissue was Suppressed [4, 11] | Suppressive Effect to Glomerular Lesion ([4]; Experimental Model of Rat: CPN) | Suppressive Effect to Lesion of Tubulointerstitial Tissue ([4]; Experimental Model of Rat: CPN) | toxicity finding [5] | selectivity of the suppressive effect on renal lesions ([6]; 30 mg/kg subcutaneously every day) | Rate of Cases where Glomerular Lesion was Suppressed [6, 12] | Rate of Cases where tubulointerstitial Lesion was Suppressed [6, 12] | Serum Creatinine level (mg/dl) on the 7th Day from Release of Obstruction [6, 12] [mg/dL] | Weight of Kidney (g) on the 7th Day from Release of Obstruction [6, 12] [g] | Suppressive Effect to Glomerular Lesion [6, 13] | Suppressive Effect to Lesion of Tubulointerstitial Tissue [6, 13] |
| --- | --- | --- | --- | --- | --- | --- | --- | --- | --- | --- | --- | --- | --- | --- | --- | --- | --- | --- | --- | --- |
| benzyl 2-ketoglutarate [(9-2)] | selectively suppresses | able to suppress | – | – | – | – | – | – | – | – | – | – | – | – | – | – | – | – | – | – |
| O=C1CCC(Cl)(C(=O)OCc2ccccc2)O1 (stereo not drawn) [(6-1), Benzyl 2-chloro-5-oxotetrahydrofuran-2-carboxylate] | – | – | > 1 | > 1 | group II | 0.001 | 0.001 | well suppressed | 67% (4/6) | 17% (1/6) | ∘ | x | an increase in weights of the liver and the spleen in a light degree | – | – | – | – | – | – | – |
| CCOC(=O)C1(Oc2ccc(F)cc2)CCC(=O)O1 (racemic) [Conventional Compound, ethyl 2-(4-fluorophenoxy)-5-oxo-2-tetrahydrofurancarboxylate, reference compound] | – | – | 0.1 | 0.1 | – | 0.1 | 0.1 | – | – | – | – | – | – | no selective suppression was observed | 75% (3/4) | 75% (3/4) | 2.2 ± 0.2 | 2.73 ± 0.41 | ∘ | ∘ |
